# Source: patent US9085750B2, “Stabilized subtilisin composition” (Novozymes A/S, priority 2011, dated 2015)
# Experiments:
# Format in all cases: biochemical
# Subtilisin: Savinase = biological target: T1, Subtilisin: Savinase (Lederbergia lenta, UniProt P29600); experiment: Remaining subtilisin activity after storage in the Table 3 detergent; conditions: 2 weeks at 35° C.
# T1 construct: purchased Novozymes A/S Savinase 16L
# T1 sequence (P29600 1-269): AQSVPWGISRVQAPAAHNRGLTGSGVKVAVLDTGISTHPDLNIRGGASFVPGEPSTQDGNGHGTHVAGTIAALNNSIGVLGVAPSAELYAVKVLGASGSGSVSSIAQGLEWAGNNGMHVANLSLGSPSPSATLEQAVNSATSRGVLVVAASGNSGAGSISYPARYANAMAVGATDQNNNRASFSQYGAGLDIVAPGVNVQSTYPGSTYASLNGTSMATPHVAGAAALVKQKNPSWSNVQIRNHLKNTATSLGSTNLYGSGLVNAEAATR
# Procedure: (§1) General experimental details: Detergents with a subtilisin (Savinase 16L) and a lipase (Lipex 100L) with or without X—B^1—NH—CHR—CHOH—SO3Na (the peptide aldehyde hydrosulfite adduct can be added separately to the detergent containing the subtilisin) are placed in closed glasses at −18° C.; 35° C. and 40° C. Residual activities of protease and lipase are measured after different times using standard analytical methods (protease by hydrolysis of N,N-dimethylcasein at 40° C., pH 8.3 and lipase by hydrolysis of pNp-valerate at 40° C., pH 7.7). Similar trials can be made with addition of subtilisin to a detergent already containing suitable amounts of the peptide aldehyde hydrosulfite adduct. Similar results can be obtained with all the mentioned peptide aldehyde bisulfite adducts.
# (§2) As an example of a detergent composition with a stabilized subtilisin formulation, the composition described in Table 3 was made.
# (§3) In Table 4 are shown the results measured after two weeks incubation at 35° C. in the detergent described in Table 3.
# Lipase: Lipex 100L = experiment: Remaining lipase activity after storage with subtilisin in the Table 3 detergent (hydrolysis of pNp-valerate); conditions: 2 weeks at 35° C.
# Procedure: as §1, §2, §3
# Subtilisin Coronase 48L = experiment: Remaining subtilisin activity after storage in the Table 5 detergent, Coronase 48L; conditions: 59 ppm inhibitor in detergent of Table 5
# Procedure: as §1
# (§4) As yet another example of a detergent with a stabilized subtilisin formulation, the composition described in Table 5 was made.
# (§5) In Table 6 are shown the results measured after 4 weeks incubation at 37° C., and after 8 weeks incubation at 30° C., in the detergent described in Table 5.
# [1] = biological target: T2, subtilisin (Savinase 16L) (Lederbergia lenta, UniProt P29600); experiment: Remaining protease activity of Savinase 16L after storage in the Table 1 detergent (hydrolysis of N,N-dimethylcasein); conditions: one week at 40° C.
# T2 construct: purchased Novozymes A/S Savinase 16L
# T2 sequence (P29600 1-269): T1 sequence (P29600 1-269)
# Procedure: as §1
# As an example of detergent composition with a stabilized subtilisin formulation, the composition described in Table 1 was made.
# In Table 2 are shown the results obtained with X=Cbz-Gly; B^1=Ala; R═—CH2-p(C6H4)—OH; stability measured after one week incubation at 40° C. in the detergent described in Table 1.
# Lipase: Lipoclean 2000L = experiment: Remaining lipase activity after storage with subtilisin in the Table 5 detergent
# Procedure: as §1, §4, §5
# [2] = test system: Subtilisin Liquanase 2.5L; experiment: Remaining subtilisin activity after storage in the Table 5 detergent, Liquanase 2.5L; conditions: 34 ppm inhibitor in detergent of Table 5
# Procedure: as §1, §4, §5
SMILES,"remaining activity at 128 ppm (Subtilisin: Savinase; 128 ppm inhibitor in detergent of Table 3, read-out: Remaining activity of Subtilisin (protease))",Remaining activity of Lipase (Lipase: Lipex 100L; 128 ppm inhibitor in detergent of Table 3 with Savinase),"Remaining activity of Subtilisin, 4 weeks at 37° C. (Subtilisin Coronase 48L)",Protease stability (remaining activity) ([1]; 7 ppm inhibitor in detergent of Table 1),Protease stability (remaining activity) ([1]; 14 ppm inhibitor in detergent of Table 1),Protease stability (remaining activity) ([1]; 18 ppm inhibitor in detergent of Table 1),Remaining activity of Subtilisin (protease) (Subtilisin: Savinase; 21 ppm inhibitor in detergent of Table 3),Remaining activity of Lipase (Lipase: Lipex 100L; 21 ppm inhibitor in detergent of Table 3 with Savinase),"Remaining activity of Lipase, 8 weeks at 30° C. (Lipase: Lipoclean 2000L; with Coronase 48L, 59 ppm inhibitor in detergent of Table 5)","Remaining activity of Lipase, 8 weeks at 30° C. (Lipase: Lipoclean 2000L; with Liquanase 2.5L, 34 ppm inhibitor in detergent of Table 5)","Remaining activity of Subtilisin, 4 weeks at 37° C. [2]"
"O=Cc1ccc(B(O)O)cc1 [4-formylphenyl boronic acid, reference compound]",8%,2%,–,–,–,–,–,–,–,–,–
C[C@H](NC(=O)CNC(=O)OCc1ccccc1)C(=O)N[C@@H](Cc1ccc(O)cc1)C(O)S(=O)(=O)[O-].[Na+] (some centres unmarked) [Cbz-GA-NHCH(CH2C6H4OH)C(OH)(SO3M)-H],–,–,80%,52%,77%,80%,63%,18%,61%,27%,83%
